Several values for one entry are separate records, joined by “and”; a condition that tells them apart may be missing. Identical values can stand only once.
Columns and labels:
barnyard grass = assay: Greenhouse test of weed control effect, combined action evaluated by Gowing method; type: in vivo; settings: single component
Experimental: (§1) Embodiment 1 The synergistic effects of the compound contained with component A and component B is conducted in greenhouse in the present invention, and the component A takes A-3, A-4 and A-5 compounds in the compound table 1 of the general formula I as examples.
(§2) The synergistic effects of the composition on the weeds is defined through greenhouse test.
(§3) A weed culture method is: respectively planting weed seeds of piemarker and barnyard grass quantitatively in a paper cup with a diameter of 7 cm and containing nutrient soil; after planting, covering soil, pressing and watering; and then culturing in a greenhouse. The grass weeds grow to 5-7 leaf stages; the broadleaf weeds grow to 6-8 leaf stages; pre-emergence and post-emergence treatment are conducted with three times repeats. The weeds are placed in the greenhouse after treatment when the leaf without water dried naturally in air, and cultured with normal method. According to the inhibited condition or dying condition of the weeds, after treatment 30 days, visual inspection of the control effect is conducted (see Table 2-Table 7).
(§4) A herbicide formulation preparing method: all test samples are technical dissolved by a mixed solvent of acetone and dimethylformyl (1:2, V/V) firstly; then 1‰ of Tween 80 water is used to prepare mother liquor of a certain concentration; and then processing solutions of different doses are prepared according to test schemes.
(§5) The present invention adopts a Gowing method for evaluating the combined action of the proposed composition.
(§6) X—the weed control effect when the dosage of the component A of the herbicide is P;
(§7) Y—the weed control effect when the dosage of the component B of the herbicide is Q;
(§8) E0—the theoretical control effect when the dosage of the component A of the herbicide is P+the theoretical control effect when the dosage of the component B of the herbicide is Q;
(§9) E—the measured control effect after the component A of the herbicide and the component B of the herbicide are mixed in the above proportion.
(§10) When E−E0>10%, the synergy is achieved; when E−E0<−10%, antagonism is achieved; when the value of E−E0 is between ±10%, the addition effect is achieved.

piemarker = assay: as above; type: in vivo; settings: single component
Experimental: as §1, §2, §3, §4, §5, §6, §7, §8, §9, §10

[1] = dose 7.5 ga.i./hm^2, visual inspection 30 days after treatment
[2] = dose 30 ga.i./hm^2, visual inspection 30 days after treatment
[3] = dose 120 ga.i./hm^2, visual inspection 30 days after treatment

c1cc[n+]2c(c1)-c1cccc[n+]1CC2 [Diquat, diquat]
Measured Value E (weed control effect) (barnyard grass; [1]): 30% and 20% | Measured Value E (weed control effect) (barnyard grass; [2]): 50% and 45% and 40% | Measured Value E (weed control effect) (barnyard grass; [3]): 65% and 60% and 55% | Measured Value E (weed control effect) (piemarker; [1]): 20% and 15% and 30% | Measured Value E (weed control effect) (piemarker; [2]): 50% and 55% and 45% | Measured Value E (weed control effect) (piemarker; [3]): 60% and 65% and 55%

Source: patent US20220087263A1, “HERBICIDE COMPOSITION AND APPLICATION THEREOF” (SHENYANG SINOCHEM AGROCHEMICALS R&D CO., LTD., priority 2018, published 2022)
